Measurements as given in patent US20110201620A1, “2-(3-AMINOARYL) AMINO-4-ARYL-THIAZOLES AND THEIR USE AS C-KIT INHIBITORS” (AB SCIENCE, priority 2002, published 2011).
Values joined by “and” are separate entries in the source; they are usually repeats but may differ in a detail not shown here. Identical values can stand only once.

How the values were obtained:
[1] = system: Human Kit exon 9; conditions: read-out: Cell proliferation assay (IC50) Human Kit exon 9; cited from earlier work
[2] = system: locally advanced or metastatic, c-Kit positive GIST; test: Phase 2 clinical trial in advanced GIST, efficacy (RECIST, FDG-PET, PFS, OS); type: in vivo, human
Description: Methods; Patients: Patients enrolled in this study were aged over 18 years with inoperable, non-pretreated, histologically proven locally advanced or metastatic, c-Kit positive GIST. […] Exclusion criteria included: inadequate organ function defined via blood tests, severe liver or cardiac failure, and severe neurological or psychiatric disorders. Patients receiving a concomitant treatment within 4 weeks before inclusion, and pregnant or lactating women were also excluded. […] Time-to-event analyses were calculated from the date of first masitinib intake to the date of event (documented progression or death). Patients who had not progressed at the date of last tumor assessment were censored at that date for PFS. Patients alive at the time of the analysis were censored at the date of last contact for OS. Methods; Statistical analyses: Simon […] two-stage design was used for this prospective, multicenter, single-group, phase II trial. Fourteen patients were initially enrolled, with recruitment of an additional ten patients being dependent on the occurrence of at least one objective RECIST response. This population was further extended to a total of 30 patients to ensure a sufficient evaluable population for all end-points; the type I(α) error was 5% (two-sided) for all analyses. Quantitative variables were described by the number of filled and missing data, mean, standard deviation, median, minimum and maximum Qualitative variables were described by the number of missing data and, for each modality, frequency and percentage (referring to filled data). Time-to-event data were described using Kaplan-Meier (KM) estimates. The median was provided with its 95% confidence interval (95% CI). PFS rates were given every 6 months with KM estimates. All data analyses and reporting procedures used SAS v9.1 in a Windows XP operating system environment.

[3] = Kaplan-Meier estimate, listed as masitinib

Which IC50 [1] does the source give for Cc1ccc(NC(=O)c2ccc(CN3CCN(C)CC3)cc2)cc1Nc1nc(-c2cccnc2)cs1 [Compound 066, 4-(4-methyl-piperazin-1-ylmethyl)-N-[4-methyl-3-(4-pyridin-3-yl-thiazol-2-ylamino)-phenyl]-benzamide] here?
The IC50 was 100 nM.

What about the “patients who never benefited from treatment (early resistance)” value ([2]; 1/30 patient) of the same compound?
The value was 3.3%.

And the “OS rates (%) [95% CI] 12 months” value [2, 3]?
The value was 96.7%.

And the “OS rates (%) [95% CI] 24 months” value [2, 3]?
Its value is 89.9%.

And the “OS rates (%) [95% CI] 36 months” value [2, 3]?
Its value is 89.9%.

And the “PFS rate (%) [95% CI] 6 months” value [2, 3]?
Its value is 88.9%.

What about the “PFS rate (%) [95% CI] 12 months” value [2, 3] of the same compound?
Its value is 76.8%.

And the “PFS rate (%) [95% CI] 24 months” value [2, 3]?
The value was 59.7% and 60%.

And the “PFS rate (%) [95% CI] 36 months” value [2, 3]?
The value was 55.4% and 55%.

And the “PFS Median” value ([2]; Kaplan-Meier, ITT N = 30)?
Its value is 41.3 months.

What about the “Metabolic response CMR, At 1 month” value ([2]; N = 13, FDG-PET, complete metabolic response) of the same compound?
Its value is 0 (0.0%) n (%).

And the “Metabolic response CMR + PMR, At 1 month” value ([2]; N = 13, FDG-PET, metabolic response rate)?
Its value is 9 (69.2%) n (%).

And the “Metabolic response PMR, At 1 month” value ([2]; N = 13, FDG-PET, partial metabolic response, listed as masitinib)?
Its value is 9 (69.2%) n (%).

And the “Metabolic response SMD, At 1 month” value ([2]; N = 13, FDG-PET, stable metabolic disease, listed as masitinib)?
The value was 4 (30.8%) n (%).

What about the “Metabolic response CMR, At 2 months” value ([2]; N = 14, FDG-PET, complete metabolic response, listed as masitinib) of the same compound?
Its value is 3 (21.4%) n (%).

And the “Metabolic response CMR + PMR, At 2 months” value ([2]; N = 14, FDG-PET, metabolic response rate, listed as masitinib)?
The value was 12 (85.7%) n (%).

What about the “Metabolic response PMR, At 2 months” value ([2]; N = 14, FDG-PET, partial metabolic response, listed as masitinib) of the same compound?
The value was 9 (64.2%) n (%).

And the “Metabolic response SMD, At 2 months” value ([2]; N = 14, FDG-PET, stable metabolic disease, listed as masitinib)?
Its value is 2 (14.3%) n (%).

What about the “Response (RECIST) CR, 2 months” value ([2]; N = 30, complete response) of the same compound?
The value was 0 (0.0%) n (%).

What about the “Response (RECIST) CR, Best Response” value ([2]; N = 30, complete response, listed as masitinib) of the same compound?
The value was 1 (3.3%) n (%).

What about the “Response (RECIST) CR + PR + SD, 2 months” value ([2]; N = 30, disease control rate) of the same compound?
Its value is 29 (96.7%) n (%).

What about the “Response (RECIST) CR + PR + SD, Best Response” value ([2]; N = 30, disease control rate, listed as masitinib) of the same compound?
Its value is 29 (96.7%) n (%).

And the “Response (RECIST) CR + PR, 2 months” value ([2]; N = 30, overall response rate)?
The value was 6 (20.0%) n (%).

What about the “Response (RECIST) CR + PR, Best Response” value ([2]; N = 30, overall response rate, listed as masitinib) of the same compound?
Its value is 16 (53.3%) n (%).

And the “Response (RECIST) PR, Best Response” value ([2]; N = 30, partial response, listed as masitinib)?
Its value is 15 (50.0%) n (%).

And the “Response (RECIST) PD, Best Response” value ([2]; N = 30, progressive disease, listed as masitinib)?
Its value is 1 (3.3%) n (%).

What about the “Response (RECIST) SD, Best Response” value ([2]; N = 30, stable disease, listed as masitinib) of the same compound?
Its value is 13 (43.3%) n (%).

And the “tumour response according to changes in tumour size (RECIST), evaluable patients” value ([2]; after 2 months of masitinib)?
Its value is 20%.

And the “tumour response according to metabolic response using FDG-PET” value ([2]; after 2 months of masitinib)?
The value was 86%.

And the “tumour response in patients assessed with DCE-US” value ([2]; after 2 months of masitinib)?
Its value is 75%.

What about the “patients with confirmed PR after 2 months, Simon first stage” value ([2]; first 14 patients) of the same compound?
Its value is 4/14.

What about the “Median time to first objective response” value ([2]; range: 0.8-23.8 months) of the same compound?
The value was 5.6 months.
